2 compounds from paper PMC3809102 (Current cancer drug targets, 2010) can be followed below.

One assay addresses Ku70 (Homo sapiens, UniProt P12956). Nature of the assay: surface plasmon resonance. Type of assay: binding. On the technique in general: Surface plasmon resonance follows binding to a sensor surface in real time, without labels.
The target in a further assay is T1, SIRT1 (Homo sapiens, UniProt Q96EB6).
T1 sequence (Q96EB6 2-747): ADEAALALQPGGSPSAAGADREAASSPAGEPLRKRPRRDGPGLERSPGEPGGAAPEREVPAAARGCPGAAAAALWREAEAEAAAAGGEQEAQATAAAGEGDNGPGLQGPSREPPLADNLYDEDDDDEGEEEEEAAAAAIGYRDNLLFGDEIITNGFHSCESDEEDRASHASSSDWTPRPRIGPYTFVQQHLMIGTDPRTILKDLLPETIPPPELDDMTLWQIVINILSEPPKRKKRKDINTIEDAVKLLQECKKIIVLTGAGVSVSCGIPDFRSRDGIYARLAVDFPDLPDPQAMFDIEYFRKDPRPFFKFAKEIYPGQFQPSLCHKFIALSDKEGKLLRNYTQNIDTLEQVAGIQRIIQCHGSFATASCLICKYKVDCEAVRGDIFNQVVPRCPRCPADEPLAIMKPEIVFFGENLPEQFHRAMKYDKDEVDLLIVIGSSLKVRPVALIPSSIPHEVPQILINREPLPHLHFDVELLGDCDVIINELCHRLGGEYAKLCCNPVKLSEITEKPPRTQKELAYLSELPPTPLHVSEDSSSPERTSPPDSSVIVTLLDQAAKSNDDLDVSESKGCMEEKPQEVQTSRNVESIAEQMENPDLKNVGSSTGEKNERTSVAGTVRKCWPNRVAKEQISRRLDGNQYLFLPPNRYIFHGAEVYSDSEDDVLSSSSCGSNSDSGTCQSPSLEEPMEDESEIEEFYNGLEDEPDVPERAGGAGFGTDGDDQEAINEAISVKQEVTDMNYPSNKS
Nature of the assay: cell-free SIRT1 FRET-based screening assay. The assay is classed as biochemical.

Sequence of Ku70 (P12956 2-609): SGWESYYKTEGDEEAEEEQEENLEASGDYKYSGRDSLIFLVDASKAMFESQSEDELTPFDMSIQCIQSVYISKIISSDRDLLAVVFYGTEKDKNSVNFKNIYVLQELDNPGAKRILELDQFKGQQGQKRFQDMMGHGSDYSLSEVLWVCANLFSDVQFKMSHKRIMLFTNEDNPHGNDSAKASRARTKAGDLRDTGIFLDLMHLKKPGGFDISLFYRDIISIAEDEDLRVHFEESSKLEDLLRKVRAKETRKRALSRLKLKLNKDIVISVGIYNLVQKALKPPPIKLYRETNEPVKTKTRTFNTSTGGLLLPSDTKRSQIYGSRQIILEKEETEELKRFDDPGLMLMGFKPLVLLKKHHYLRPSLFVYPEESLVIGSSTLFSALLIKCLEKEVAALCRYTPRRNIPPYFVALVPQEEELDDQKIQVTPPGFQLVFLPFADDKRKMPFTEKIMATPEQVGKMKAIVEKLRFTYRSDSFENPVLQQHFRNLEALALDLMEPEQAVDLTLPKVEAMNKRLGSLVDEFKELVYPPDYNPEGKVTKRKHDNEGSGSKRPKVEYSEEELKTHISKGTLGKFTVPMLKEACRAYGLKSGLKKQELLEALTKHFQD

The term Kd denotes the equilibrium constant for the complex coming apart. A high value points to a looser complex. Turning to `COc1ccc(C2=NC(c3ccc(Cl)cc3)C(c3ccc(Cl)cc3)N2C(=O)N2CCNC(=O)C2)c(OC(C)C)c1` (racemic) [Nutlin-3, (±)-4-[4,5-Bis(4-chlorophenyl)-2-(2-isopropoxy-4-methoxy-phenyl)-4,5-dihydro-imidazole-1-carbonyl]-piperazin-2-one], binding on Ku70 was put at a Kd of 169 µM. The “cell-free SIRT1 FRET-based screening assay (Cayman kit), 15 μM” value at SIRT1 is “MI-219, MI-319 and Nutlin-3 significantly suppressed SIRT1 activity while the inactive analog MI-10 did not”.

Turning to MI-319, binding on Ku70 was put at a Kd of 0.17 µM.
